# Measured values as given in paper PMC12028158, “Synthesis and In Vitro Evaluation of the Anticancer Effect of Novel Phosphonium Vindoline Derivatives” (International Journal of Molecular Sciences, 2025).
# Read-outs that look alike come from different tables or passages of the source.
# Tests used:
# Type in all cases: cell-based
# [1] = test system: SR; assay: NCI60 five-dose screen; settings: Homo sapiens
# [2] = test system: A549/ATCC; assay: NCI60 five-dose screen; settings: Homo sapiens, A549
# [3] = test system: HOP-92; assay: NCI60 five-dose screen; settings: Homo sapiens, HOP-92
# [4] = test system: NCI-H226; assay: NCI60 five-dose screen; settings: Homo sapiens, NCI-H226
# [5] = test system: HCC-2998; assay: NCI60 five-dose screen; settings: Homo sapiens, HCC 2998
# [6] = test system: HT29; assay: NCI60 five-dose screen; settings: Homo sapiens, HT-29
# [7] = test system: SF-268; assay: NCI60 five-dose screen; settings: Homo sapiens, SF-268
# [8] = test system: SNB-19; assay: NCI60 five-dose screen; settings: Homo sapiens, SNB-19
# [9] = test system: MDA-MB-435; assay: NCI60 five-dose screen; settings: Homo sapiens, MDA-MB-435
# [10] = test system: SK-MEL-5; assay: NCI60 five-dose screen; settings: Homo sapiens, SK-MEL-5
# [11] = test system: IGROV1; assay: NCI60 five-dose screen; settings: Homo sapiens, IGROV-1
# [12] = test system: CAKI-1; assay: NCI60 five-dose screen; settings: Homo sapiens, CAKI-1
# [13] = test system: SN12C; assay: NCI60 five-dose screen; settings: Homo sapiens
# [14] = test system: HS 578T; assay: NCI60 five-dose screen; settings: Homo sapiens, Hs-578T
# [15] = test system: T-47D; assay: NCI60 five-dose screen; settings: Homo sapiens, T47D
# [16] = test system: Leukemia panel; assay: NCI60 five-dose screen, panel mean; settings: Homo sapiens
# [17] = test system: Colon Cancer panel; assay: NCI60 five-dose screen, panel mean; settings: Homo sapiens
# [18] = test system: CNS Cancer panel; assay: NCI60 five-dose screen, panel mean; settings: Homo sapiens
# [19] = test system: Breast Cancer panel; assay: NCI60 five-dose screen, panel mean; settings: Homo sapiens
# [20] = test system: 60 human tumor cell lines (NCI60); assay: NCI60 five-dose screen, overall mean
# [21] = test system: HL-60(TB); assay: NCI60 one-dose screen; settings: Homo sapiens, HL-60, read-out: Growth percent
# [22] = test system: MOLT-4; assay: NCI60 one-dose screen; settings: Homo sapiens, MOLT-4, read-out: Growth percent
# [23] = test system: HOP-62; assay: NCI60 one-dose screen; settings: Homo sapiens, HOP-62, read-out: Growth percent
# [24] = test system: HOP-92; assay: NCI60 one-dose screen; settings: Homo sapiens, HOP-92, read-out: Growth percent
# [25] = test system: NCI-H226; assay: NCI60 one-dose screen; settings: Homo sapiens, NCI-H226, read-out: Growth percent
# [26] = test system: SF-295; assay: NCI60 one-dose screen; settings: Homo sapiens, SF-295, read-out: Growth percent
# [27] = test system: U251; assay: NCI60 one-dose screen; settings: Homo sapiens, U-251, read-out: Growth percent
# [28] = test system: SK-MEL-2; assay: NCI60 one-dose screen; settings: Homo sapiens, SK-MEL-2, read-out: Growth percent
# [29] = test system: UACC-257; assay: NCI60 one-dose screen; settings: Homo sapiens, UACC-257, read-out: Growth percent
# [30] = test system: OVCAR-8; assay: NCI60 one-dose screen; settings: Homo sapiens, OVCAR-8, read-out: Growth percent
# [31] = test system: ACHN; assay: NCI60 one-dose screen; settings: Homo sapiens, read-out: Growth percent
# [32] = test system: CAKI-1; assay: NCI60 one-dose screen; settings: Homo sapiens, CAKI-1, read-out: Growth percent
# [33] = test system: MCF7; assay: NCI60 one-dose screen; settings: Homo sapiens, MCF7, read-out: Growth percent
# [34] = test system: BT-549; assay: NCI60 one-dose screen; settings: Homo sapiens, BT-549, read-out: Growth percent
# [35] = 60 cell, read-out: Mean GI50, mean over all 60 cell lines
structure (smiles),measurement,setting,value
CC[C@]12C=CCN3CC[C@@]4(c5ccc(OC)cc5N(C)[C@H]4[C@@](O)(C(=O)OC)[C@@H]1OC(=O)CCC[P+](C1CCCCC1)(C1CCCCC1)C1CCCCC1)[C@@H]32 [9d],GI50,[1],1350 nM
same,GI50,[2],3460 nM
same,GI50,[3],1010 nM
same,GI50,[4],4060 nM
same,GI50,[5],1700 nM
same,GI50,[6],1880 nM
same,GI50,[7],3230 nM
same,GI50,[8],2220 nM
same,GI50,[9],1830 nM
same,GI50,[10],1760 nM
same,GI50,[11],1390 nM
same,GI50,[12],16400 nM
same,GI50,[13],2890 nM
same,GI50,[14],2450 nM
same,GI50,[15],1320 nM
same,GI50,[16]; read-out: Mean GI50,1200 nM
same,GI50,[17]; read-out: Mean GI50,3820 nM
same,GI50,[18]; read-out: Mean GI50,2710 nM
same,GI50,[19]; read-out: Mean GI50,1540 nM
same,GI50,[20]; [35],3800 nM
same,activity at 10 µM,[21],-37.1%
same,activity at 10 µM,[22],2.35%
same,activity at 10 µM,[23],4.26%
same,activity at 10 µM,[24],-43.8%
same,activity at 10 µM,[25],-20%
same,activity at 10 µM,[26],-13.6%
same,activity at 10 µM,[27],-82.5%
same,activity at 10 µM,[28],-84.9%
same,activity at 10 µM,[29],-80.9%
same,activity at 10 µM,[30],1.19%
same,activity at 10 µM,[31],32%
same,activity at 10 µM,[32],-8.49%
same,activity at 10 µM,[33],-72.2%
same,activity at 10 µM,[34],-97.4%
CC[C@]12C=CCN3CC[C@@]4(c5ccc(OC)cc5N(C)[C@H]4[C@@](O)(C(=O)OC)[C@@H]1OC(=O)CCCC[P+](c1ccc(OC)cc1)(c1ccc(OC)cc1)c1ccc(OC)cc1)[C@@H]32 [10b],GI50,[1],428 nM
same,GI50,[2],1650 nM
same,GI50,[3],520 nM
same,GI50,[4],2030 nM
same,GI50,[5],617 nM
same,GI50,[6],511 nM
same,GI50,[7],1470 nM
same,GI50,[8],484 nM
same,GI50,[9],521 nM
same,GI50,[10],1600 nM
same,GI50,[11],548 nM
same,GI50,[12],15200 nM
same,GI50,[13],1180 nM
same,GI50,[14],1510 nM
same,GI50,[15],383 nM
same,GI50,[16]; read-out: GI50 Mean,560 nM
same,GI50,[17]; read-out: GI50 Mean,1880 nM
same,GI50,[18]; read-out: GI50 Mean,1170 nM
same,GI50,[19]; read-out: GI50 Mean,700 nM
same,GI50,[20]; [35],< 3000 nM
same,GI50,"[20]; read-out: GI50 Mean, mean over all 60 human cancer cell lines",2200 nM
same,activity at 10 µM,[21],-45.2%
same,activity at 10 µM,[22],-26.2%
same,activity at 10 µM,[23],-80.8%
same,activity at 10 µM,[24],-74.5%
same,activity at 10 µM,[25],-63.6%
same,activity at 10 µM,[26],-93.6%
same,activity at 10 µM,[27],-95.9%
same,activity at 10 µM,[28],-91.4%
same,activity at 10 µM,[29],-93.4%
same,activity at 10 µM,[30],-90.2%
same,activity at 10 µM,[31],-49.2%
same,activity at 10 µM,[32],-78.5%
same,activity at 10 µM,[33],-82.6%
same,activity at 10 µM,[34],-96.7%
CC[C@]12C=CCN3CC[C@@]4(c5ccc(OC)cc5N(C)[C@H]4[C@@](O)(C(=O)OC)[C@@H]1OC(=O)CCC[P+](c1ccc(F)cc1)(c1ccc(F)cc1)c1ccc(F)cc1)[C@@H]32 [9c],GI50,[1],7450 nM
same,GI50,[2],21500 nM
same,GI50,[3],5440 nM
same,GI50,[4],24200 nM
same,GI50,[5],9530 nM
same,GI50,[6],12500 nM
same,GI50,[7],15000 nM
same,GI50,[8],11400 nM
same,GI50,[9],8140 nM
same,GI50,[10],8260 nM
same,GI50,[11],7090 nM
same,GI50,[12],> 48500 nM
same,GI50,[13],14800 nM
same,GI50,[14],11800 nM
same,GI50,[15],10500 nM
same,GI50,[16]; read-out: Mean GI50,7250 nM
same,GI50,[17]; read-out: Mean GI50,16800 nM
same,GI50,[18]; read-out: Mean GI50,20200 nM
same,GI50,[19]; read-out: Mean GI50,8040 nM
same,GI50,[20]; [35],17000 nM
same,activity at 10 µM,[21],-22.9%
same,activity at 10 µM,[22],37.1%
same,activity at 10 µM,[23],64%
same,activity at 10 µM,[24],-6.2%
same,activity at 10 µM,[25],46.9%
same,activity at 10 µM,[26],85%
same,activity at 10 µM,[27],18.5%
same,activity at 10 µM,[28],-46.9%
same,activity at 10 µM,[29],-34.3%
same,activity at 10 µM,[30],28%
same,activity at 10 µM,[31],101%
same,activity at 10 µM,[32],73.1%
same,activity at 10 µM,[33],7.7%
same,activity at 10 µM,[34],-9.4%
